Reference: ChEMBL document CHEMBL1131822, “Nonpeptidic HIV protease inhibitors: 6-alkyl-5,6-dihydropyran-2-ones possessing a novel and achiral 3-(2-t-butyl-5-methyl-4-sulfamate)phenylthio moiety” (Bioorg Med Chem Lett, 1999)

Key:
CYP2C9 [1] = biological target: T1, CYP2C9 (Homo sapiens, UniProt P11712); experiment: Inhibition of Cytochrome P450 2C9 at 10 uM; assay type: ADME
CYP2D6 [2] = experiment: Inhibition of Cytochrome P450 2D6 at 100 uM; assay type: ADME
[3] = Therapeutic index was determined; details: read-out: Therapeutic index
[4] = biological target: T2, Human immunodeficiency virus type 1 protease (Human immunodeficiency virus 1, UniProt Q72874); experiment: Tested in vitro for HIV protease (PR) binding affinity
CYP2C9 [5] = biological target: T1, CYP2C9; experiment: Inhibition of Cytochrome P450 2C9 at 1 uM; assay type: ADME
CYP3A4 [6] = biological target: T3, CYP3A4 (Homo sapiens, UniProt P08684); experiment: Inhibition of Cytochrome P450 3A4 at 10 uM; assay type: ADME
T3 sequence (P08684 whole entry): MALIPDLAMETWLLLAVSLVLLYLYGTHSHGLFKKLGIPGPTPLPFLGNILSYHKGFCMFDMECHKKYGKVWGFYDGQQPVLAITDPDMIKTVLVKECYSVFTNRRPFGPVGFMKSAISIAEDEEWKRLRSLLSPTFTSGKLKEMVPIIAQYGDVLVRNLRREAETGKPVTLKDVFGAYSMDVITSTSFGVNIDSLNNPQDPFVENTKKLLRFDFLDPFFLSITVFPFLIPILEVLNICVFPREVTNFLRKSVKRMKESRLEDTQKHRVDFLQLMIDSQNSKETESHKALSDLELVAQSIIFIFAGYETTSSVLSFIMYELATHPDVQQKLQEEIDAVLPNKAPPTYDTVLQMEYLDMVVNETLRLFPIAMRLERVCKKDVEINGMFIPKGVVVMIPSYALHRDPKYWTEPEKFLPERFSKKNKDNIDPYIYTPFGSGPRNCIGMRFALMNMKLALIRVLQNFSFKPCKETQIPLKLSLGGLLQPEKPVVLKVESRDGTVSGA

CYP2D6 [7] = experiment: Inhibition of Cytochrome P450 2D6 at 1 uM; assay type: ADME
[8] = biological target: T2, Human immunodeficiency virus type 1 protease; experiment: Compound was tested for binding affinity against HIV protease
[9] = tested on: Human immunodeficiency virus 1; experiment: In vitro inhibition of HIV-1 (IIIB) cytopathic effects in CEM (human leukemia) cells.; assay type: functional, organism-based; details: Human immunodeficiency virus 1, CCRF-CEM
CYP2C9 [10] = biological target: T1, CYP2C9; experiment: Inhibition of Cytochrome P450 2C9 at 100 uM; assay type: ADME
CYP3A4 [11] = biological target: T3, CYP3A4; experiment: Inhibition of Cytochrome P450 3A4 at 100 uM; assay type: ADME
CYP3A4 [12] = biological target: T3, CYP3A4; experiment: Inhibition of Cytochrome P450 3A4 at 1 uM; assay type: ADME
CYP2D6 [13] = experiment: Inhibition of Cytochrome P450 2D6 at 10 uM; assay type: ADME
[14] = In vitro Cytotoxicity against uninfected CEM (human leukemia) cells.; assay type: functional; details: CCRF-CEM, read-out: TC50 (the source's name)

T1 sequence (P11712 whole entry): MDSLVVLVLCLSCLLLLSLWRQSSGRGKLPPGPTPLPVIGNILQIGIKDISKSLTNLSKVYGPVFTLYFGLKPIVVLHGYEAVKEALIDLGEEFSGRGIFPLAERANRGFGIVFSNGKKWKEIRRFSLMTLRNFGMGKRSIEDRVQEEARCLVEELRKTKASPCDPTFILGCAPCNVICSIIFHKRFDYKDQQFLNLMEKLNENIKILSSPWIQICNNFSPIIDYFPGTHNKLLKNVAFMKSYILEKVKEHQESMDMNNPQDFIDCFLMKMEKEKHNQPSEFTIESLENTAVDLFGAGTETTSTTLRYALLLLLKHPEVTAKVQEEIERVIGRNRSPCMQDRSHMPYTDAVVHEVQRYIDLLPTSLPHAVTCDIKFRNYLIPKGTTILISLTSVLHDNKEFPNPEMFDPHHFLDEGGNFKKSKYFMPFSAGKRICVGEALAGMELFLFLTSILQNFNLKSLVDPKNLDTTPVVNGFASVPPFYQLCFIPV

Row | inhibition at 100 µM (CYP2D6 [2]) [%] | IC50 [4] [nM] | inhibition at 10 µM (CYP3A4 [6]) [%] | inhibition at 1 µM (CYP2D6 [7]) [%] | EC50 [9] [nM] | inhibition at 100 µM (CYP3A4 [11]) [%] | inhibition at 1 µM (CYP3A4 [12]) [%] | inhibition at 10 µM (CYP2D6 [13]) [%] | SMILES | inhibition at 10 µM (CYP2C9 [1]) [%] | selectivity ratio [3] | inhibition at 1 µM (CYP2C9 [5]) [%] | Ki [8] [nM] | inhibition at 100 µM (CYP2C9 [10]) [%] | CC50 [14] [nM]
1 | – | 2.6 | – | – | 770 | – | – | – | Cc1cc(SC2=C(O)OC(CCc3ccc(O)cc3)(C(C)C)CC2=O)c(C(C)(C)C)cc1OS(=O)(=O)N1CCOCC1 (configuration not stated) | – | 109 | – | – | – | 84000
2 | – | 4.3 | – | – | 630 | – | – | – | CCNS(=O)(=O)Oc1cc(C(C)(C)C)c(SC2=C(O)OC(CCc3ccc(N)cc3)(C(C)C)CC2=O)cc1C (configuration not stated) | – | 117 | – | – | – | 74000
3 | – | 4.8 | – | – | 1400 | – | – | – | CCNS(=O)(=O)Oc1cc(C(C)(C)C)c(SC2=C(O)OC(CCc3ccc(O)cc3)(C3CCCCC3)CC2=O)cc1C (configuration not stated) | – | 48 | – | – | – | 67000
4 | – | 3.9 | – | – | 740 | – | – | – | Cc1cc(SC2=C(O)OC(CCc3ccc(N)cc3)(C(C)C)CC2=O)c(C(C)(C)C)cc1OS(=O)(=O)N(C)C (configuration not stated) | – | 86 | – | – | – | 64000
5 | – | 1 | – | – | 560 | – | – | – | Cc1cc(SC2=C(O)OC(CCc3ccc(N)cc3)(C(C)C)CC2=O)c(C(C)(C)C)cc1OS(=O)(=O)N1CCN(C)CC1 (configuration not stated) | – | 127 | – | – | – | 71000
6 | – | 6.2 | – | – | 4300 | – | – | – | CCCNS(=O)(=O)Oc1cc(C(C)(C)C)c(SC2=C(O)OC(C)(CCc3ccc(O)cc3)CC2=O)cc1C (configuration not stated) | – | 15 | – | – | – | 66000
7 | – | 3.4 | – | – | 700 | – | – | – | Cc1cc(SC2=C(O)OC(CCc3ccc(O)cc3)(C(C)C)CC2=O)c(C(C)(C)C)cc1OS(=O)(=O)N(C)C (configuration not stated) | – | 100 | – | – | – | 70000
8 | – | 6.5 | – | – | > 7000 | – | – | – | Cc1cc(SC2=C(O)OC(C)(CCc3ccc(O)cc3)CC2=O)c(C(C)(C)C)cc1O (configuration not stated) | – | < 1 | – | – | – | 7000
9 | – | 8.9 | – | – | 770 | – | – | – | CCNS(=O)(=O)Oc1cc(C(C)(C)C)c(SC2=C(O)OC(CCc3ccccc3)(C(C)C)CC2=O)cc1C (configuration not stated) | – | 87 | – | – | – | 67000
10 | – | 3.9 | – | – | 1650 | – | – | – | Cc1cc(SC2=C(O)OC(CCc3ccccc3)(C(C)C)CC2=O)c(C(C)(C)C)cc1OS(=O)(=O)N1CCN(C)CC1 (configuration not stated) | – | > 61 | – | – | – | > 100000
11 | – | 1.6 | – | – | 8200 | – | – | – | Cc1cc(SC2=C(O)OC(C)(CCc3ccc(O)cc3)CC2=O)c(C(C)(C)C)cc1OS(=O)(=O)N(C)C (configuration not stated) | – | > 12 | – | – | – | > 100000
12 | – | 3 | – | – | 1200 | – | – | – | CCCNS(=O)(=O)Oc1cc(C(C)(C)C)c(SC2=C(O)OC(CCc3ccc(O)cc3)(C(C)C)CC2=O)cc1C (configuration not stated) | – | > 83 | – | – | – | > 100000
13 | – | 7.1 | – | – | 2300 | – | – | – | Cc1cc(SC2=C(O)OC(C)(CCc3ccc(O)cc3)CC2=O)c(C(C)(C)C)cc1OS(=O)(=O)N1CCN(C)CC1 (configuration not stated) | – | > 44 | – | – | – | > 100000
14 | – | 4.9 | – | – | 1100 | – | – | – | CCNS(=O)(=O)Oc1cc(C(C)(C)C)c(SC2=C(O)OC(CCc3ccc(O)cc3)(C(C)C)CC2=O)cc1C (configuration not stated) | – | > 91 | – | – | – | > 100000
15 | – | 1.2 | – | – | 1100 | – | – | – | CNS(=O)(=O)Oc1cc(C(C)(C)C)c(SC2=C(O)OC(CCc3ccc(O)cc3)(C(C)C)CC2=O)cc1C (configuration not stated) | – | > 91 | – | – | – | > 100000
16 | – | 26 | – | – | 4300 | – | – | – | CCNS(=O)(=O)Oc1cc(C(C)(C)C)c(SC2=C(O)OC(CCc3ccc(O)cc3)(c3ccccc3)CC2=O)cc1C (configuration not stated) | – | 15 | – | – | – | 66000
17 | – | 1.8 | – | – | 5200 | – | – | – | Cc1cc(SC2=C(O)OC(C)(CCc3ccc(O)cc3)CC2=O)c(C(C)(C)C)cc1OS(N)(=O)=O (configuration not stated) | – | 13 | – | – | – | 69000
18 | 100 | 2.3 | 10 | 62 | 1500 | 58 | 1 | 89 | CCNS(=O)(=O)Oc1cc(C(C)(C)C)c(SC2=C(O)OC(C)(CCc3ccc(O)cc3)CC2=O)cc1C (configuration not stated) | 6 | 44 | 0 | – | 46 | 66000
19 | 100 | 3.1 | 22 | 39 | 500 | 81 | 0 | 86 | Cc1cc(SC2=C(O)OC(CCc3ccc(O)cc3)(C(C)C)CC2=O)c(C(C)(C)C)cc1OS(=O)(=O)N1CCN(C)CC1 (configuration not stated) | – | > 200 | – | – | – | > 100000
20 | – | 9.7 | – | – | 5100 | – | – | – | Cc1cc(SC2=C(O)OC(CCc3ccc(O)cc3)(C3CCCCC3)CC2=O)c(C(C)(C)C)cc1OS(=O)(=O)N1CCN(C)CC1 (configuration not stated) | – | > 20 | – | – | – | > 100000
21 | – | 20 | – | – | 5000 | – | – | – | Cc1cc(SC2=C(O)OC(CCc3ccc(O)cc3)(C3CCCCC3)CC2=O)c(C(C)(C)C)cc1OS(=O)(=O)N(C)C (configuration not stated) | – | 12 | – | – | – | 60000

Row | SMILES | inhibition at 100 µM (CYP2D6 [2]) [%] | IC50 [4] [nM] | inhibition at 10 µM (CYP3A4 [6]) [%] | inhibition at 1 µM (CYP2D6 [7]) [%] | EC50 [9] [nM] | inhibition at 100 µM (CYP3A4 [11]) [%] | inhibition at 1 µM (CYP3A4 [12]) [%] | inhibition at 10 µM (CYP2D6 [13]) [%] | inhibition at 10 µM (CYP2C9 [1]) [%] | selectivity ratio [3] | inhibition at 1 µM (CYP2C9 [5]) [%] | Ki [8] [nM] | inhibition at 100 µM (CYP2C9 [10]) [%] | CC50 [14] [nM]
22 | Cc1cc(SC2=C(O)O[C@](CCc3ccc(N)cc3)(C(C)C)CC2=O)c(C(C)(C)C)cc1CO | 33 | 1 | 16 | 3 | 200 | 30 | 4 | 16 | 12 | 1050 | 2 | 0.11 | 59 | –
